≈ marks a conversion by molar mass, not a printed value.
How the values were obtained:
[1] = tested on: U-87MG human glioblastoma cells; experiment: Cellular uptake study, U-87MG; assay type: cell-based; settings: for Boron uptake, specific (LAT1-specific): difference non-inhibitor minus inhibitor; for Boron uptake, non-inhibitor: no inhibitor, mixed with fructose; for Boron uptake, inhibitor: with 10 µM LAT1 inhibitor JPH203
Experimental: (§1) B16F10 mouse melanoma cells (RCB2630) and T3M-4 human pancreatic adenocarcinoma cells (RCB1021) were provided by the RIKEN BRC (Ibaraki, Japan). U-87MG human glioblastoma cells were provided by Prof. Magata (Hamamatsu University School of Medicine, Hamamatsu, Japan), and A549 human lung carcinoma cells (CCL-185) were obtained from ATCC (Manassas, VA, USA). Cells were cultured in growth medium RPMI 1640 for B16F10 and T3M-4 and DMEM for A549 and U-87MG, containing 10% fetal bovine serum at 37 °C in a humidified atmosphere of 5% CO2.
(§2) Cells were cultured in six-well plates 2 days before the experiment. After medium removal, cells were washed twice with choline buffer (140 mM choline chloride, 2 mM potassium chloride, 1 mM magnesium chloride, 1 mM calcium chloride, 1 M Tris) and preincubated with 900 µL of choline buffer containing/not containing 10 µM of the LAT1-specific inhibitor JPH203 [32, 33] (Selleck Biotech, Tokyo, Japan) at 37 °C for 5 min. After incubation, 100 µL of 3-BPA or 4-BPA mixed with fructose (0.5 mg/mL, 0.11 w/v% Fru, pH 7.4) was added and incubated at 37 °C for 1, 5, and 30 min. After washing three times with choline buffer, 400 µL of 0.2 M NaOH was added to lyse the cells. After the amount of cell protein was measured using the BCA method (Thermo Fisher Scientific, Tokyo, Japan) and the mixture was ashed with nitric acid, the amount of boron was measured using ICP-MS. The accumulation rate was calculated as % dose/mg protein from the quantified dose of boron in added 3-BPA and 4-BPA, respectively (n = 3).

[2] = tested on: T3M-4 human pancreatic adenocarcinoma cells; experiment: Cellular uptake study, T3M-4; assay type: cell-based; settings: for Boron uptake, specific (LAT1-specific): difference non-inhibitor minus inhibitor; for Boron uptake, non-inhibitor: no inhibitor, mixed with fructose; for Boron uptake, inhibitor: with 10 µM LAT1 inhibitor JPH203
Experimental: as §1, §2

[3] = tested on: B16F10 mouse melanoma cells; experiment: Cellular uptake study, B16F10; assay type: cell-based; settings: for Boron uptake, specific (LAT1-specific): difference non-inhibitor minus inhibitor; for Boron uptake, non-inhibitor: no inhibitor, mixed with fructose; for Boron uptake, inhibitor: with 10 µM LAT1 inhibitor JPH203
Experimental: as §1, §2

[4] = cited from earlier work
[5] = design: method as in doi:10.1007/978-1-4757-9567-7_10; settings: cited from earlier work
[6] = Log p measurement (water/1-octanol, ICP-MS); assay type: physicochemical; settings: v/v); water:1-octanol 1:1, n = 12
Experimental: After dissolving 3-BPA or 4-BPA in water (0.2 mg/mL), 1-octanol was added to compose a water:1-octanol (1:1, v/v) mixture. The mixture was shaken for 5 min and then centrifuged at 5000 rpm for 10 min. The amount of boron was measured for each liquid phase using ICP-MS, and log p was calculated from the concentration ratio of each liquid phase. The experiment was repeated twice with n = 6.

[7] = Water solubility (boron in supernatant by ICP-MS); assay type: physicochemical; settings: for solubility at 24 h: 25 °C, 24 h stirring, n = 6
Experimental: 3-BPA or 4-BPA (40 mg) were suspended in 200 μL water and stirred at 25 °C for 24 h. After stirring, the solution was centrifuged at 5000 rpm for 10 min, and the amount of boron in the supernatant solution was measured by 8800 triple quadrupole ICP-MS (Agilent, Santa Clara, CA, USA). The experiment was repeated twice with n = 3.

[8] = tested on: A549 human lung carcinoma cells; experiment: Cellular uptake study, A549; assay type: cell-based; settings: for Boron uptake, specific (LAT1-specific): difference non-inhibitor minus inhibitor; for Boron uptake, non-inhibitor: no inhibitor, mixed with fructose; for Boron uptake, inhibitor: with 10 µM LAT1 inhibitor JPH203
Experimental: as §1, §2

## N[C@@H](Cc1ccc(B(O)O)cc1)C(=O)O [4-BPA, 4-borono-L-phenylalanine]
[1]; 1 min
  Boron uptake, specific (LAT1-specific): 0.05 ± 0.02 % dose/mg protein
  Boron uptake, non-inhibitor: 0.13 ± 0.02 % dose/mg protein
  Boron uptake, inhibitor: 0.08 ± 0.01 % dose/mg protein
[1]; 5 min
  Boron uptake, specific (LAT1-specific): 0.06 ± 0.02 % dose/mg protein
  Boron uptake, non-inhibitor: 0.20 ± 0.02 % dose/mg protein
  Boron uptake, inhibitor: 0.14 ± 0.02 % dose/mg protein
[1]; 30 min
  Boron uptake, specific (LAT1-specific): 0.31 ± 0.03 % dose/mg protein
  Boron uptake, non-inhibitor: 0.48 ± 0.03 % dose/mg protein
  Boron uptake, inhibitor: 0.17 ± 0.01 % dose/mg protein
[2]; T3M-4, 1 min
  Boron uptake, specific (LAT1-specific): 0.56 ± 0.11 % dose/mg protein
  Boron uptake, non-inhibitor: 0.82 ± 0.11 % dose/mg protein
  Boron uptake, inhibitor: 0.26 ± 0.16 % dose/mg protein
[2]; T3M-4, 5 min
  Boron uptake, specific (LAT1-specific): 3.10 ± 0.39 % dose/mg protein
  Boron uptake, non-inhibitor: 3.28 ± 0.39 % dose/mg protein
  Boron uptake, inhibitor: 0.18 ± 0.02 % dose/mg protein
[2]; T3M-4, 30 min
  Boron uptake, specific (LAT1-specific): 5.19 ± 0.45 % dose/mg protein
  Boron uptake, non-inhibitor: 5.40 ± 0.45 % dose/mg protein
  Boron uptake, inhibitor: 0.20 ± 0.01 % dose/mg protein
[3]; B16F10, 1 min
  Boron uptake, specific (LAT1-specific): 0.03 ± 0.01 % dose/mg protein
  Boron uptake, non-inhibitor: 0.03 ± 0.01 % dose/mg protein
  Boron uptake, inhibitor: 0.00 ± 0.01 % dose/mg protein
[3]; B16F10, 5 min
  Boron uptake, specific (LAT1-specific): 0.48 ± 0.01 % dose/mg protein
  Boron uptake, non-inhibitor: 0.62 ± 0.01 % dose/mg protein
  Boron uptake, inhibitor: 0.14 ± 0.03 % dose/mg protein
[3]; B16F10, 30 min
  Boron uptake, specific (LAT1-specific): 0.56 ± 0.06 % dose/mg protein
  Boron uptake, non-inhibitor: 0.57 ± 0.06 % dose/mg protein
  Boron uptake, inhibitor: 0.01 ± 0.01 % dose/mg protein
[4]; neutral conditions, ref Borofalan interview form
  Water solubility under neutral conditions: 0.6 to 0.7 mg/mL
[5]
  pKa1: 2.35
  pKa2: 8.45
  pKa3: 9.67
[6]
  logP: -1.8 ± 0.04
[7]; in water
  solubility at 24 h: 0.72 ± 0.13 mg/mL (≈ 3.44 mM)
[8]; A549, 1 min
  Boron uptake, specific (LAT1-specific): 0.13 ± 0.04 % dose/mg protein
  Boron uptake, non-inhibitor: 0.14 ± 0.04 % dose/mg protein
  Boron uptake, inhibitor: 0.01 ± 0.01 % dose/mg protein
[8]; A549, 5 min
  Boron uptake, specific (LAT1-specific): 0.66 ± 0.08 % dose/mg protein
  Boron uptake, non-inhibitor: 0.66 ± 0.08 % dose/mg protein
  Boron uptake, inhibitor: 0.00 ± 0.01 % dose/mg protein
[8]; A549, 30 min
  Boron uptake, specific (LAT1-specific): 3.75 ± 0.20 % dose/mg protein
  Boron uptake, non-inhibitor: 3.92 ± 0.20 % dose/mg protein
  Boron uptake, inhibitor: 0.17 ± 0.09 % dose/mg protein

## NC(Cc1cccc(O)c1)C(=O)O (racemic) [meta-Tyrosine, DL-meta-tyrosine]
[7]; in water, 25°C, n = 3, Table S8
  Solubility (g/L) (in water, 25°C, n = 3): 9.8 ± 0.1 g/L (≈ 54.1 mM)
[7]; times higher than DL-tyrosine
  Water solubility of DL-meta-tyrosine relative to DL-tyrosine: more than 25 times

## N[C@@H](Cc1cccc(B(O)O)c1)C(=O)O [3-BPA, 3-borono-L-phenylalanine]
[1]; 1 min
  Boron uptake, specific (LAT1-specific): 0.02 ± 0.04 % dose/mg protein
  Boron uptake, non-inhibitor: 0.33 ± 0.04 % dose/mg protein
  Boron uptake, inhibitor: 0.31 ± 0.05 % dose/mg protein
[1]; 5 min
  Boron uptake, specific (LAT1-specific): 0.15 ± 0.04 % dose/mg protein
  Boron uptake, non-inhibitor: 0.28 ± 0.04 % dose/mg protein
  Boron uptake, inhibitor: 0.14 ± 0.05 % dose/mg protein
[1]; 30 min
  Boron uptake, specific (LAT1-specific): 0.21 ± 0.05 % dose/mg protein
  Boron uptake, non-inhibitor: 0.45 ± 0.05 % dose/mg protein
  Boron uptake, inhibitor: 0.24 ± 0.04 % dose/mg protein
[2]; T3M-4, 1 min
  Boron uptake, specific (LAT1-specific): 0.69 ± 0.09 % dose/mg protein
  Boron uptake, non-inhibitor: 0.78 ± 0.09 % dose/mg protein
  Boron uptake, inhibitor: 0.09 ± 0.08 % dose/mg protein
[2]; T3M-4, 5 min
  Boron uptake, specific (LAT1-specific): 3.55 ± 0.40 % dose/mg protein
  Boron uptake, non-inhibitor: 3.55 ± 0.40 % dose/mg protein
  Boron uptake, inhibitor: 0.09 ± 0.07 % dose/mg protein
[2]; T3M-4, 30 min
  Boron uptake, specific (LAT1-specific): 5.41 ± 0.63 % dose/mg protein
  Boron uptake, non-inhibitor: 5.62 ± 0.63 % dose/mg protein
  Boron uptake, inhibitor: 0.21 ± 0.06 % dose/mg protein
[3]; B16F10, 1 min
  Boron uptake, specific (LAT1-specific): 0.03 ± 0.03 % dose/mg protein
  Boron uptake, non-inhibitor: 0.23 ± 0.03 % dose/mg protein
  Boron uptake, inhibitor: 0.21 ± 0.06 % dose/mg protein
[3]; B16F10, 5 min
  Boron uptake, specific (LAT1-specific): 0.42 ± 0.11 % dose/mg protein
  Boron uptake, non-inhibitor: 0.59 ± 0.11 % dose/mg protein
  Boron uptake, inhibitor: 0.17 ± 0.11 % dose/mg protein
[3]; B16F10, 30 min
  Boron uptake, specific (LAT1-specific): 0.56 ± 0.07 % dose/mg protein
  Boron uptake, non-inhibitor: 0.80 ± 0.07 % dose/mg protein
  Boron uptake, inhibitor: 0.24 ± 0.01 % dose/mg protein
[5]
  pKa1: 2.26
  pKa2: 8.46
  pKa3: 9.95
[6]
  logP: -1.59
[7]; in water
  solubility at 24 h: 125 mg/mL (≈ 598 mM)
[7]; times higher than 4-BPA
  Water solubility of 3-BPA relative to 4-BPA: more than 100 times
[8]; A549, 1 min
  Boron uptake, specific (LAT1-specific): 0.30 ± 0.12 % dose/mg protein
  Boron uptake, non-inhibitor: 0.48 ± 0.12 % dose/mg protein
  Boron uptake, inhibitor: 0.18 ± 0.03 % dose/mg protein
[8]; A549, 5 min
  Boron uptake, specific (LAT1-specific): 0.94 ± 0.40 % dose/mg protein
  Boron uptake, non-inhibitor: 1.22 ± 0.13 % dose/mg protein
  Boron uptake, inhibitor: 0.29 ± 0.02 % dose/mg protein
[8]; A549, 30 min
  Boron uptake, specific (LAT1-specific): 3.60 ± 0.24 % dose/mg protein
  Boron uptake, non-inhibitor: 4.02 ± 0.24 % dose/mg protein
  Boron uptake, inhibitor: 0.42 ± 0.01 % dose/mg protein

## N[C@@H](Cc1ccccc1)C(=O)O [phenylalanine]
[4]
  water solubility: 12.0 mg/mL (≈ 72.6 mM)
[7]; in water, 25°C, n = 3, Table S8, read-out: Solubility (g/L) (in water, 25°C, n = 3)
  solubility: 15.3 ± 0.1 g/L (≈ 92.6 mM)
